{"source": "patent EP3070175A1", "about": "“TEST FOR DETERMINING SUSCEPTIBILITY OR RESISTANCE TO POLYMYXINS IN ENTEROBACTERIACEAE” (Université de Fribourg, priority 2015, dated 2016)", "assay_in_all_cases": "Polymyxin test: colorimetric detection of growth (glucose metabolization, phenol red) in presence of colistin sulphate", "design_in_all_cases": "key: +, yellow; -, orange", "key": {"S. marcescens": {"test_system": "S. marcescens", "format": "cell-based, Serratia marcescens", "conditions": "strain Smar; colistin sulphate 3.75 mg/L final; visual colour change, up to 4 h at 37°C", "protocol": "(§1) Each inoculum was prepared by mixing 1 öse (10 µl) of a fresh culture of the tested bacteria in 5 ml of sterile NaCl 0.85% (at a density of 3 Mac Farland, i.e. about 10^9 CFU/ml).\n(§2) 250 ml of reactive medium was prepared by mixing the compounds hereafter: • a broth powder of a non selective growth medium for bacteria, the Cation-Adjusted Mueller-Hinton broth (MHB-CA) : 6.25 g • a colour indicator, the phenol red : 0.0125 g • sterile distilled water 225 ml • sterile D (+)-glucose (10 %) anhydrous (sterilization by filtration) : 25 ml\n(§3) The pH of the final reactive medium was adjusted to 6.6 and 6.7 with HCl 1M.\n(§4) Colistin or polymyxin B was added or not at the concentration of 5 mg/L in the reactive medium. Standard colistin sulphate and polymyxin B were from Sigma Aldrich (Saint-Louis, France). Those antibiotic molecule powders were kept at 4°C before their use, whereas polymyxin dilutions were kept at -20°C.\n(§5) For each strain, two wells of a plastic sterile plate with 96 shaped wells were inoculated in parallel with and without polymyxin (colistin sulphate or polymyxin B) in order to compare their colour change.\nPlastic sterile plates were from Sarstedt (Nümbrecht, Germany). The tray may be prepared as follows : • 1. […]\nThe results of the tests were recorded at 10 min (checking for no spontaneous colour change in the well) and then every hour for a maximum of 4 hours by visual inspection. […]"}, "K. pneumoniae": {"test_system": "K. pneumoniae", "format": "cell-based, Klebsiella pneumoniae", "conditions": "colistin sulphate 3.75 mg/L final, visual colour change, up to 4 h at 37°C", "protocol": "as §1, §2, §3, §4, §5\n(§6) Plastic sterile plates were from Sarstedt (Nümbrecht, Germany). The tray may be prepared as follows : • 1. 150 µl of reactive medium colistin free (obtained in 1.) in the first line • 2. 150 µl of reactive medium with 5 mg/l of colistin sulphate in the second line (final concentration = 3.75 mg/l) • 3. 50 µl of NaCl alone in the first column (one well colistin-free and one well with colistin sulphate) (medium control) • 4. 50 µl of the bacterial suspension (obtained in 2.) for the control strains and for every strain in the other column (one well colistin-free and one well with colistin)\n(§7) After mixing of the bacterial suspension to the reactive medium by pipetting up and down, the final concentration of bacteria was 2.5.10^8 CFU/ml in each well and the final selective concentration of colistin or polymyxin B in the well with polymyxin was 3.75 mg/L.\n(§8) The results of the tests were recorded at 10 min (checking for no spontaneous colour change in the well) and then every hour for a maximum of 4 hours by visual inspection. No colour change of the well with colistin sulphate or polymyxin B indicated susceptibility to colistin sulphate or polymyxin B and negativity of those tests. On the contrary, a colour change (orange to yellow) indicates the positivity of the test meaning growth capability (related to glucose metabolism) in presence of colistin sulphate or polymyxin B, i.e. resistance to colistin sulphate or polymyxin B.\n(§9) All experiments were repeated in triplicate."}, "E. coli": {"test_system": "E. coli", "format": "cell-based, Escherichia coli", "conditions": "colistin sulphate 3.75 mg/L final, visual colour change, up to 4 h at 37°C", "protocol": "as §1, §2, §3, §4, §5, §6, §7, §8, §9"}, "C. freundii": {"test_system": "C. freundii", "format": "cell-based", "conditions": "colistin sulphate 3.75 mg/L final, visual colour change, up to 4 h at 37°C", "protocol": "as §1, §2, §3, §4, §5, §6, §7, §8, §9"}, "E. cloacae": {"test_system": "E. cloacae", "format": "cell-based", "conditions": "colistin sulphate 3.75 mg/L final, visual colour change, up to 4 h at 37°C", "protocol": "as §1, §2, §3, §4, §5, §6, §7, §8, §9"}, "E. aerogenes": {"test_system": "E. aerogenes", "format": "cell-based", "conditions": "strain 6 FR; colistin sulphate 3.75 mg/L final; visual colour change, up to 4 h at 37°C", "protocol": "as §1, §2, §3, §4, §5, §6, §7, §8, §9"}, "M. morganii": {"test_system": "M. morganii", "format": "cell-based", "conditions": "strain Mmor; colistin sulphate 3.75 mg/L final; visual colour change, up to 4 h at 37°C", "protocol": "as §1, §2, §3, §4, §5, §6, §7, §8, §9"}, "H. alvei": {"test_system": "H. alvei", "format": "cell-based", "conditions": "strain ER; colistin sulphate 3.75 mg/L final; visual colour change, up to 4 h at 37°C", "protocol": "as §1, §2, §3, §4, §5, §6, §7, §8, §9"}, "P. stuartii": {"test_system": "P. stuartii", "format": "cell-based", "conditions": "strain Pstu; colistin sulphate 3.75 mg/L final; visual colour change, up to 4 h at 37°C", "protocol": "as §1, §2, §3, §4, §5, §6, §7, §8, §9"}, "K. oxytoca": {"test_system": "K. oxytoca", "format": "cell-based", "conditions": "strain C24; colistin sulphate 3.75 mg/L final; visual colour change, up to 4 h at 37°C", "protocol": "as §1, §2, §3, §4, §5, §6, §7, §8, §9"}}, "data": [{"substance": "colistin sulphate", "values": [{"measurement": "Results of the method of the invention", "setting": "S. marcescens", "value": "+"}, {"measurement": "Results of the method of the invention", "setting": "K. pneumoniae; strain 1 FR", "value": "-"}, {"measurement": "Results of the method of the invention", "setting": "K. pneumoniae; strain 2 FR", "value": "-"}, {"measurement": "Results of the method of the invention", "setting": "K. pneumoniae; strain 4 FR", "value": "-"}, {"measurement": "Results of the method of the invention", "setting": "K. pneumoniae; strain 9 FR", "value": "-"}, {"measurement": "Results of the method of the invention", "setting": "K. pneumoniae; strain 11 FR", "value": "+"}, {"measurement": "Results of the method of the invention", "setting": "K. pneumoniae; strain 75b", "value": "+"}, {"measurement": "Results of the method of the invention", "setting": "K. pneumoniae; strain AF1b", "value": "+"}, {"measurement": "Results of the method of the invention", "setting": "K. pneumoniae; strain C23", "value": "+"}, {"measurement": "Results of the method of the invention", "setting": "K. pneumoniae; strain C25", "value": "+"}, {"measurement": "Results of the method of the invention", "setting": "K. pneumoniae; strain C26", "value": "+"}, {"measurement": "Results of the method of the invention", "setting": "K. pneumoniae; strain C27", "value": "+"}, {"measurement": "Results of the method of the invention", "setting": "K. pneumoniae; strain C112", "value": "-"}, {"measurement": "Results of the method of the invention", "setting": "K. pneumoniae; strain C115", "value": "-"}, {"measurement": "Results of the method of the invention", "setting": "K. pneumoniae; strain C130", "value": "-"}, {"measurement": "Results of the method of the invention", "setting": "K. pneumoniae; strain C132", "value": "-"}, {"measurement": "Results of the method of the invention", "setting": "K. pneumoniae; strain T1b", "value": "+"}, {"measurement": "Results of the method of the invention", "setting": "E. coli; strain 3 FR", "value": "-"}, {"measurement": "Results of the method of the invention", "setting": "E. coli; strain 5 FR", "value": "-"}, {"measurement": "Results of the method of the invention", "setting": "E. coli; strain 10 FR", "value": "-"}, {"measurement": "Results of the method of the invention", "setting": "E. coli; strain 27563", "value": "+"}, {"measurement": "Results of the method of the invention", "setting": "E. coli; strain 27837", "value": "+"}, {"measurement": "Results of the method of the invention", "setting": "E. coli; strain 27850", "value": "+"}, {"measurement": "Results of the method of the invention", "setting": "E. coli; strain 27852", "value": "+"}, {"measurement": "Results of the method of the invention", "setting": "E. coli; strain 30742", "value": "+"}, {"measurement": "Results of the method of the invention", "setting": "E. coli; strain ATCC 25922", "value": "-"}, {"measurement": "Results of the method of the invention", "setting": "E. coli; strain C140", "value": "-"}, {"measurement": "Results of the method of the invention", "setting": "E. coli; strain Top10", "value": "-"}, {"measurement": "Results of the method of the invention", "setting": "C. freundii; strain 8 FR", "value": "-"}, {"measurement": "Results of the method of the invention", "setting": "C. freundii; strain C136", "value": "-"}, {"measurement": "Results of the method of the invention", "setting": "E. cloacae; strain 7 FR", "value": "-"}, {"measurement": "Results of the method of the invention", "setting": "E. cloacae; strain C28", "value": "+"}, {"measurement": "Results of the method of the invention", "setting": "E. cloacae; strain C129", "value": "-"}, {"measurement": "Results of the method of the invention", "setting": "E. cloacae; strain C144", "value": "-"}, {"measurement": "Results of the method of the invention", "setting": "E. cloacae; strain HM", "value": "+"}, {"measurement": "Results of the method of the invention", "setting": "E. aerogenes", "value": "-"}, {"measurement": "Results of the method of the invention", "setting": "M. morganii", "value": "+"}, {"measurement": "Results of the method of the invention", "setting": "H. alvei", "value": "+"}, {"measurement": "Results of the method of the invention", "setting": "P. stuartii", "value": "+"}, {"measurement": "Results of the method of the invention", "setting": "K. oxytoca", "value": "+"}]}]}
